Experimental data reported in patent US8658604B2, “Template-fixed beta-hairpin peptidomimetics with protease inhibitory activity” (Polyphor Ltd, priority 2005, dated 2014).
Read-outs that look alike come from different tables or passages of the source. Where a SMILES comes first, the peptide text is derived from it.

How the values were obtained:
[1] = molecular target: T1, Elastase from human neutrophils (Homo sapiens, UniProt P08246); assay: Enzymatic assay, elastase
T1 sequence (P08246 30-267): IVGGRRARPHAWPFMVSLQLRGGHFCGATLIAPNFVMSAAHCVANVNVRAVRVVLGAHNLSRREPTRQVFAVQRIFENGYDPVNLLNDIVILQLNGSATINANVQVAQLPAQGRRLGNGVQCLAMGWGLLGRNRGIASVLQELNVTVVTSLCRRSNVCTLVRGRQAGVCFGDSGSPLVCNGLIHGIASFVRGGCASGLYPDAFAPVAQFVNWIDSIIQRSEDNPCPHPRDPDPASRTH

[2] = molecular target: Trypsin, from human pancreas (Homo sapiens, UniProt P07477); assay: Enzymatic assay, trypsin; settings: at 100 μM
[3] = molecular target: T2, CathepsinG, from human neutrophils (Homo sapiens, UniProt P08311); assay: Enzymatic assay, cathepsin G
T2 sequence (P08311 21-244): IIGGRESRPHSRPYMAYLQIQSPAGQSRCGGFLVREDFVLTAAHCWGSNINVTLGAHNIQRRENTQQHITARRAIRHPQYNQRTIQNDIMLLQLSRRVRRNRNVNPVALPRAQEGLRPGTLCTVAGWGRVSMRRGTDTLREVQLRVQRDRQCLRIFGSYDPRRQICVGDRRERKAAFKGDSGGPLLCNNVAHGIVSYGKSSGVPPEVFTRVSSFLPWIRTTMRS

Chymase, from human skin = molecular target: T3, Chymase, from human skin (Homo sapiens, UniProt P23946); assay: Enzymatic assay, chymase
T3 sequence (P23946 22-247): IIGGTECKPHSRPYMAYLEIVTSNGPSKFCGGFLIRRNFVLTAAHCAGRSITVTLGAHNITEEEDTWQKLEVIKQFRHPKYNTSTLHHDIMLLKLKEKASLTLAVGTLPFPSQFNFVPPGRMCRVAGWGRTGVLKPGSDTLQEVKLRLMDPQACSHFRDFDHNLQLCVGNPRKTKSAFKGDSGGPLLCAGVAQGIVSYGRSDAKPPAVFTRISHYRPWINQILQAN

[4] = test system: human red blood cells (hRBC); assay: Hemolysis
[5] = molecular target: Urokinase from human urine (Homo sapiens, UniProt P00749); assay: Enzymatic assay, urokinase
[6] = molecular target: Chymotrypsin, from human pancreas (Homo sapiens, UniProt P17538); assay: Enzymatic assay, chymotrypsin; settings: at 100 μM
HELA cells (Acc57) = assay: Cytotoxicity assay (MTT reduction), HELA cells; type: cell-based; settings: Hela cells
Outline: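 HeLa cells were grown for 24 h, then exposed to peptides at 12.5, 25 and 50 μM in triplicate for 48 h at 37 °C. MTT reduction was read at 595 nm and growth % calculated relative to time-zero wells. LC50 interpolated by linear trend at −50% growth, GI50 at 50%.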

[7] = test system: Tryptase, from human lung; assay: Enzymatic assay, tryptase; settings: at 100 μM
[8] = molecular target: Thrombin, from Human Plasma (Homo sapiens, UniProt P00734); assay: Enzymatic assay, thrombin
[9] = molecular target: Coagulation Factor Xa, from uman plasma (Homo sapiens, UniProt P00742); assay: Enzymatic assay, coagulation factor Xa
Coagulation Factor Xa, from uman plasma, sequence (P00742 235-488 limits assumed): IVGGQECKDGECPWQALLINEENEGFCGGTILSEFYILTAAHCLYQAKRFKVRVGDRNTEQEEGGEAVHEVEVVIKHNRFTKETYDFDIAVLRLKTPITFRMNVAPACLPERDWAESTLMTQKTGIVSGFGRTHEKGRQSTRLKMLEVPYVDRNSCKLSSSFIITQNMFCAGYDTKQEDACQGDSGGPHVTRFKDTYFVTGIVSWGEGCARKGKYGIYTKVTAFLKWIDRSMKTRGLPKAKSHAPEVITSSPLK
Coagulation Factor Xa, from uman plasma, sequence (P00742 41-179 limits assumed): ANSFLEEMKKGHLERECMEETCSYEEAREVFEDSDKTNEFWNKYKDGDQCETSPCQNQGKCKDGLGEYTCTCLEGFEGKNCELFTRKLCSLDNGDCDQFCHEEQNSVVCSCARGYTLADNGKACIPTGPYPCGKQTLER

Chymotrypsin, from human pancreas, sequence (P17538 19-263): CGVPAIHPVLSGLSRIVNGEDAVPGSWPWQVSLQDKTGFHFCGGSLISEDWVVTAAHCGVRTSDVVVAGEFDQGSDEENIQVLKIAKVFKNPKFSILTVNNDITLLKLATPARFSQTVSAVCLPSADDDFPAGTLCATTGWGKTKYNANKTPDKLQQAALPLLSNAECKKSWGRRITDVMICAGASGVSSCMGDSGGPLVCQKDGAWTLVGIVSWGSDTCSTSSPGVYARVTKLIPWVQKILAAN

SMILES	IC50 ([1]; Elastase IC50) [µM]	Trypsin at 100 μM % [2] [%]	IC50 ([3]; Cathepsin G IC50) [µM]	Chymase at 100 μM % (Chymase, from human skin) [%]	Hemolysis at 100 μM % [4] [%]	Urokinase at 100 μM % [5] [%]	Chymotrypsin at 100 μM % [6] [%]	Cytotoxicity LC50/GI50 Hela cells (HELA cells (Acc57)) [µM]	Tryptase at 100 μM % [7] [%]	Thrombin at 100 μM % [8] [%]	FXa at 100 μM % [9] [%]	IC50 ([1]; read-out: Elastase IC50) [µM]	IC50 ([3]; read-out: Cathepsin G IC50) [µM]
C[C@@H](O)[C@@H]1NC(=O)[C@@H]2CSSC[C@H](NC(=O)[C@H](CC3CCCCC3)NC(=O)[C@@H]3CCCN3C(=O)[C@@H]3CCCN3C(=O)[C@H](CC(=O)O)NC(=O)[C@H](CO)NC(=O)[C@H](CCCCN)NC1=O)C(=O)N[C@@H](CO)C(=O)N1CCC[C@@H]1C(=O)N1CCC[C@H]1C(=O)N[C@@H](Cc1ccccc1)C(=O)N2 [Ex. 16] (HELM PEPTIDE1{F.C.T.K.S.D.P.P.[Cha].C.S.[dP].P}$PEPTIDE1,PEPTIDE1,2:R3-10:R3|PEPTIDE1,PEPTIDE1,1:R1-13:R2$$$V2.0)	> 100	90.0	0.066	12.9	0.1	3.2	17.9	94	–	–	–	–	–
CC[C@H](C)[C@@H]1NC(=O)[C@@H]2CCCN2C(=O)[C@H]2CCCN2C(=O)[C@H](CCCNC(=N)N)NC(=O)[C@@H]2CSSC[C@H](NC1=O)C(=O)N[C@@H]([C@@H](C)O)C(=O)N[C@@H](CCCCN)C(=O)N[C@@H](CO)C(=O)N[C@@H](CC(=O)O)C(=O)N1CCC[C@H]1C(=O)N1CCC[C@H]1C(=O)N[C@@H](CCC(N)=O)C(=O)N2 [Ex. 17] (HELM PEPTIDE1{I.C.T.K.S.D.P.P.Q.C.R.[dP].P}$PEPTIDE1,PEPTIDE1,2:R3-10:R3|PEPTIDE1,PEPTIDE1,1:R1-13:R2$$$V2.0)	> 100	90.0	0.055	27.6	0.1	–	16	94	90.4	0	–	–	–
CC[C@H](C)[C@@H]1NC(=O)[C@@H]2CCCN2C(=O)[C@H]2CCCN2C(=O)[C@H](CCCNC(=N)N)NC(=O)[C@@H]2CSSC[C@H](NC1=O)C(=O)N[C@@H]([C@@H](C)O)C(=O)N[C@@H](CCCCN)C(=O)N[C@@H](CO)C(=O)N[C@@H](CC(=O)O)C(=O)N1CCC[C@H]1C(=O)N1CCC[C@H]1C(=O)N[C@@H](Cc1ccc(O)cc1)C(=O)N2 [Ex. 18] (HELM PEPTIDE1{I.C.T.K.S.D.P.P.Y.C.R.[dP].P}$PEPTIDE1,PEPTIDE1,2:R3-10:R3|PEPTIDE1,PEPTIDE1,1:R1-13:R2$$$V2.0)	> 100	84	0.047	32.5	0	–	25	100	88.3	0	–	–	–
CC[C@H](C)[C@@H]1NC(=O)[C@@H]2CCCN2C(=O)[C@H]2CCCN2C(=O)[C@H](CCCNC(=N)N)NC(=O)[C@@H]2CSSC[C@H](NC1=O)C(=O)N[C@@H]([C@@H](C)O)C(=O)N[C@@H](CCCCN)C(=O)N[C@@H](CO)C(=O)N[C@@H](CC(=O)O)C(=O)N1CCC[C@H]1C(=O)N1CCC[C@H]1C(=O)N[C@@H](CC1CCCCC1)C(=O)N2 [Ex. 20] (HELM PEPTIDE1{I.C.T.K.S.D.P.P.[Cha].C.R.[dP].P}$PEPTIDE1,PEPTIDE1,2:R3-10:R3|PEPTIDE1,PEPTIDE1,1:R1-13:R2$$$V2.0)	> 100	97.0	0.048	44.1	0	6.7	0	100	–	28	25	–	–
CC[C@H](C)[C@@H]1NC(=O)[C@@H]2CCCN2C(=O)[C@@H]2CCCN2C(=O)[C@H](CC(=O)O)NC(=O)[C@H](CO)NC(=O)[C@H](CCCCN)NC(=O)[C@H]([C@@H](C)O)NC(=O)[C@@H]2CSSC[C@H](NC1=O)C(=O)N[C@@H](Cc1ccc(O)cc1)C(=O)N1CCC[C@@H]1C(=O)N1CCC[C@H]1C(=O)N[C@@H](CC1CCCCC1)C(=O)N2 [Ex. 36] (HELM PEPTIDE1{[Cha].C.T.K.S.D.P.P.I.C.Y.[dP].P}$PEPTIDE1,PEPTIDE1,2:R3-10:R3|PEPTIDE1,PEPTIDE1,1:R1-13:R2$$$V2.0)	–	–	0.041	–	0	0	–	83	73.3	–	–	–	–
CC[C@H](C)[C@@H]1NC(=O)[C@@H]2CCCN2C(=O)[C@@H]2CCCN2C(=O)[C@H](CC(=O)O)NC(=O)[C@H](CO)NC(=O)[C@H](CCCCN)NC(=O)[C@H]([C@@H](C)O)NC(=O)[C@@H]2CSSC[C@H](NC1=O)C(=O)N[C@@H](CC(N)=O)C(=O)N1CCC[C@@H]1C(=O)N1CCC[C@H]1C(=O)N[C@@H](C1CCCCC1)C(=O)N2 [Ex. 37] (HELM PEPTIDE1{[O=C([C@@H](N[*:1])C1CCCCC1)[*:2]].C.T.K.S.D.P.P.I.C.N.[dP].P}$PEPTIDE1,PEPTIDE1,2:R3-10:R3|PEPTIDE1,PEPTIDE1,1:R1-13:R2$$$V2.0)	–	–	0.035	–	0.1	5	–	92	56	–	–	–	–
CCCC[C@@H]1NC(=O)[C@@H]2CCCN2C(=O)[C@H]2CCCN2C(=O)[C@H]([C@@H](C)O)NC(=O)[C@@H]2CSSC[C@H](NC1=O)C(=O)N[C@@H]([C@@H](C)O)C(=O)N[C@@H](CCCCN)C(=O)N[C@@H](CO)C(=O)N[C@@H](CC(=O)O)C(=O)N1CCC[C@H]1C(=O)N1CCC[C@H]1C(=O)N[C@@H]([C@@H](C)CC)C(=O)N2 [Ex. 42] (HELM PEPTIDE1{[Nle].C.T.K.S.D.P.P.I.C.T.[dP].P}$PEPTIDE1,PEPTIDE1,2:R3-10:R3|PEPTIDE1,PEPTIDE1,1:R1-13:R2$$$V2.0)	–	–	0.046	–	0	7	–	87	0	–	–	–	–
CC[C@H](C)[C@@H]1NC(=O)[C@@H]2CCCN2C(=O)[C@H]2CCCN2C(=O)[C@H](CCCNC(=N)N)NC(=O)[C@@H]2CSSC[C@H](NC1=O)C(=O)N[C@@H]([C@@H](C)O)C(=O)N[C@@H](CCCCN)C(=O)N[C@@H](CO)C(=O)N[C@@H](CC(=O)O)C(=O)N1CCC[C@H]1C(=O)N1CCC[C@H]1C(=O)N[C@@H](CCC(N)=O)C(=O)N2 [Ex. 55] (HELM PEPTIDE1{I.C.T.K.S.D.P.P.Q.C.R.[dP].P}$PEPTIDE1,PEPTIDE1,2:R3-10:R3|PEPTIDE1,PEPTIDE1,1:R1-13:R2$$$V2.0)	–	90	–	27.6	0.1	–	16	94	90.4	–	–	> 100	0.055
CCCC[C@@H]1NC(=O)[C@H]([C@@H](C)O)NC(=O)[C@@H]2CSSC[C@H](NC(=O)[C@H]([C@@H](C)CC)NC(=O)[C@@H]3CCCN3C(=O)[C@@H]3CCCN3C(=O)[C@H](CC(=O)O)NC(=O)[C@H](CO)NC1=O)C(=O)N[C@@H](CCCNC(=N)N)C(=O)N1CCC[C@@H]1C(=O)N1CCC[C@H]1C(=O)N[C@@H]([C@@H](C)CC)C(=O)N2 [Ex. 59] (HELM PEPTIDE1{I.C.T.[Nle].S.D.P.P.I.C.R.[dP].P}$PEPTIDE1,PEPTIDE1,2:R3-10:R3|PEPTIDE1,PEPTIDE1,1:R1-13:R2$$$V2.0)	–	84	–	98.8	0	5.7	0	8	3.8	–	–	> 100	0.055
C[C@@H](O)[C@@H]1NC(=O)[C@@H]2CSSC[C@H](NC(=O)[C@H](Cc3ccc(O)cc3)NC(=O)[C@@H]3CCCN3C(=O)[C@@H]3CCCN3C(=O)[C@H](CC(=O)O)NC(=O)[C@H](CO)NC(=O)[C@H](CCCCN)NC1=O)C(=O)N[C@@H](Cc1ccc(O)cc1)C(=O)N1CCC[C@@H]1C(=O)N1CCC[C@H]1C(=O)N[C@@H](C1CCCCC1)C(=O)N2 [Ex. 65] (HELM PEPTIDE1{[O=C([C@@H](N[*:1])C1CCCCC1)[*:2]].C.T.K.S.D.P.P.Y.C.Y.[dP].P}$PEPTIDE1,PEPTIDE1,2:R3-10:R3|PEPTIDE1,PEPTIDE1,1:R1-13:R2$$$V2.0)	–	–	0.047	–	0	1	–	84	57	–	–	–	–
